Assay results from article PMC8566089 (Bioorganic Chemistry, 2021).

Assays:
[1] = test system: A431 (squamous skin) cancer cell line; experiment: MTT antiproliferative assay, A431; type: cell-based; conditions: for IC50: Homo sapiens, A-431, 72 h, read-out: IC50 ± SE, A431; for SI (selectivity index), A431: IC50 of RPE1 relative to that of A431
[2] = test system: HCT116 (colon) cancer cell line; experiment: MTT antiproliferative assay, HCT116; type: cell-based; conditions: for IC50: Homo sapiens, HCT-116, 72 h, read-out: IC50 ± SE, HCT116; for SI (selectivity index), HCT116: IC50 of RPE1 relative to that of HCT116
COX-1 = target: T1, COX-1 (Ovis aries, UniProt P05979); experiment: COX-1 inhibitor screening kit; type: biochemical
T1 sequence (P05979 25-600): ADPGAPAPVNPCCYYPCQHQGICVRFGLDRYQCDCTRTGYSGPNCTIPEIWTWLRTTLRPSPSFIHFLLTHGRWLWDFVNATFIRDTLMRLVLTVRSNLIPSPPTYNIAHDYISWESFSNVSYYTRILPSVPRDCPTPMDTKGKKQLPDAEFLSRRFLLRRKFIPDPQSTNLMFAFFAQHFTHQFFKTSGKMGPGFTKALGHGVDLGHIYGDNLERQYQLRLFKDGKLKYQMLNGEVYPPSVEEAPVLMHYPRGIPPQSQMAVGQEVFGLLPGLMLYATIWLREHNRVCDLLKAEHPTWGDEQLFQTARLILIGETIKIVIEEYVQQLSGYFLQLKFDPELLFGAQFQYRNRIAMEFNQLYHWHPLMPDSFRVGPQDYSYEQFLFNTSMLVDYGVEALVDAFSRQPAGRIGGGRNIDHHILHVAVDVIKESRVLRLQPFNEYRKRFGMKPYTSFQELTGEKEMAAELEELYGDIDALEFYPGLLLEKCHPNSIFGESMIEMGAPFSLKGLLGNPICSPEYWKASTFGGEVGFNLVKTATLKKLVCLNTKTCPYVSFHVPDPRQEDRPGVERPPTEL

VEGFR-2 [3] = target: T2, VEGFR-2 (Homo sapiens, UniProt P35968); experiment: VEGFR-2 Western blot in HCT116; type: cell-based; conditions: for VEGFR2 HCT116 % Inhibition: Western blot at MTT-IC50; for VEGFR2 HCT116 RQ (relative quantification): Western blot at MTT-IC50, control RQ 3.817
T2 sequence (P35968 20-1356): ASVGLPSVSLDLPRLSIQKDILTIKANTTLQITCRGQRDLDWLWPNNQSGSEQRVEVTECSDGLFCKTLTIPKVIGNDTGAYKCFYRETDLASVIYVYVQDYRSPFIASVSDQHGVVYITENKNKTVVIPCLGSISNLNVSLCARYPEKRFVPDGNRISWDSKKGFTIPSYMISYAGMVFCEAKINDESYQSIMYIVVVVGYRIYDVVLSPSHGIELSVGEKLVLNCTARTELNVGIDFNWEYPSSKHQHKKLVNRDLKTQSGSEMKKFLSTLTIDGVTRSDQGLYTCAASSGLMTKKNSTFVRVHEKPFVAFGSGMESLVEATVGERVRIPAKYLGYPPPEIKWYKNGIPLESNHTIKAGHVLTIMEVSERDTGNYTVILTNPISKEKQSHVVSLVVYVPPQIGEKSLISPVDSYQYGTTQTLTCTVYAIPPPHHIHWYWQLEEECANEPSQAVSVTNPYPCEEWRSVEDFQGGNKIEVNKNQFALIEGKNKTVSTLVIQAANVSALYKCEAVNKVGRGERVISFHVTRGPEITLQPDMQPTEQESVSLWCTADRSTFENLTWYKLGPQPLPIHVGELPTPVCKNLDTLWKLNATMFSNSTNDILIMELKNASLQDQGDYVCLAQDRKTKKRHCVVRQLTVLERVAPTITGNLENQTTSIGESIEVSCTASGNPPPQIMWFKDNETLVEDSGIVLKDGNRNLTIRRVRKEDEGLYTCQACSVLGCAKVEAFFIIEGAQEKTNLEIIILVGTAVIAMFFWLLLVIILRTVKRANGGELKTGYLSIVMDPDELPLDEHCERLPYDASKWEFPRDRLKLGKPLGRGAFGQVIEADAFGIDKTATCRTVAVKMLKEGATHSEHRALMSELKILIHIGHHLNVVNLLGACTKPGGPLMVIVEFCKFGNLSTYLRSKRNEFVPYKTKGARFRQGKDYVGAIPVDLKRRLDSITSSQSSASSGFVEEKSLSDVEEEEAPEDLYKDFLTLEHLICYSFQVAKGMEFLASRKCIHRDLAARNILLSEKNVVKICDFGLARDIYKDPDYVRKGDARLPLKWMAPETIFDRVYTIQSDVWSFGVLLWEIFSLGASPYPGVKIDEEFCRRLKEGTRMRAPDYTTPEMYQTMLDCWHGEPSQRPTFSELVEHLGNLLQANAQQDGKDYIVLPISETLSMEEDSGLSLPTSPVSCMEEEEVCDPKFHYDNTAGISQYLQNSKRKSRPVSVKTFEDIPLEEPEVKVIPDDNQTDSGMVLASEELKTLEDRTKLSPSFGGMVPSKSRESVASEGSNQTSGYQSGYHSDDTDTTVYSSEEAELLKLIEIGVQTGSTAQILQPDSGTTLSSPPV

[4] = test system: MCF7 (breast) cancer cell line; experiment: MTT antiproliferative assay, MCF7; type: cell-based; conditions: for IC50: Homo sapiens, MCF7, 72 h, read-out: IC50 ± SE, MCF7; for SI (selectivity index), MCF7: IC50 of RPE1 relative to that of MCF7
EGFR [5] = target: T3, EGFR (Homo sapiens, UniProt P00533); experiment: EGFR Western blot in MCF7; type: cell-based; conditions: for EGFR MCF7 % Inhibition: Western blot at MTT-IC50; for EGFR MCF7 RQ (relative quantification): Western blot at MTT-IC50, control RQ 4.226
T3 sequence (P00533 25-1210): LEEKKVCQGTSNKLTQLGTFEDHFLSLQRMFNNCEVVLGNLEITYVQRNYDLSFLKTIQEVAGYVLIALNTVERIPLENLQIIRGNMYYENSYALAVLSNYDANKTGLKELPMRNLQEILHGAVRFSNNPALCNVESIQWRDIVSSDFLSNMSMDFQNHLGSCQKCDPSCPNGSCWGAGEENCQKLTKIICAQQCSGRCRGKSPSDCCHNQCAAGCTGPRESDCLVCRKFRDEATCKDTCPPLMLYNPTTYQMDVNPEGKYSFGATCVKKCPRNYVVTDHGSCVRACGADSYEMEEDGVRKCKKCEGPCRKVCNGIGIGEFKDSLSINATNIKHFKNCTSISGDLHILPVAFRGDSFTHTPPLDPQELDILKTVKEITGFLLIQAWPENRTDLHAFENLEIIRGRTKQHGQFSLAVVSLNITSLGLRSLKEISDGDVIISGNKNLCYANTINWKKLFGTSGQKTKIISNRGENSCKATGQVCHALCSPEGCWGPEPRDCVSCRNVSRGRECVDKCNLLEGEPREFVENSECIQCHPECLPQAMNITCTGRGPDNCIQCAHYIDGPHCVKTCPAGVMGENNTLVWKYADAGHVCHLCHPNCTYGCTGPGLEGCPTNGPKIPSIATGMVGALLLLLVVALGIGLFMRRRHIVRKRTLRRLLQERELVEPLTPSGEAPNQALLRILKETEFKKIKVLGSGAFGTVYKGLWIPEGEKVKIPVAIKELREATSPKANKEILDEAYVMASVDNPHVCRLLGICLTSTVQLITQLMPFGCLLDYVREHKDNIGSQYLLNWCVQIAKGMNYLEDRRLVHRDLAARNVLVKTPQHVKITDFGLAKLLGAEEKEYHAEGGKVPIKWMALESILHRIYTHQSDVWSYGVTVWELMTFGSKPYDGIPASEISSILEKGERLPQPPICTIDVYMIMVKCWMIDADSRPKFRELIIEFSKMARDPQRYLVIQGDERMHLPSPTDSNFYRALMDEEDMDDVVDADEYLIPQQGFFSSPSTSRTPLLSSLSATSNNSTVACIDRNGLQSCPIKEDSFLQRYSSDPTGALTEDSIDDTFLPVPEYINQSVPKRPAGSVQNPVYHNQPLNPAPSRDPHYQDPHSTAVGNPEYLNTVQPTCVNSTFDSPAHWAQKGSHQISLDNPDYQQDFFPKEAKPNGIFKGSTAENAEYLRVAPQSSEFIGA

COX-2 = target: T4, COX-2 (Homo sapiens, UniProt P35354); experiment: COX-2 inhibitor screening kit; type: biochemical
T4 sequence (P35354 18-604): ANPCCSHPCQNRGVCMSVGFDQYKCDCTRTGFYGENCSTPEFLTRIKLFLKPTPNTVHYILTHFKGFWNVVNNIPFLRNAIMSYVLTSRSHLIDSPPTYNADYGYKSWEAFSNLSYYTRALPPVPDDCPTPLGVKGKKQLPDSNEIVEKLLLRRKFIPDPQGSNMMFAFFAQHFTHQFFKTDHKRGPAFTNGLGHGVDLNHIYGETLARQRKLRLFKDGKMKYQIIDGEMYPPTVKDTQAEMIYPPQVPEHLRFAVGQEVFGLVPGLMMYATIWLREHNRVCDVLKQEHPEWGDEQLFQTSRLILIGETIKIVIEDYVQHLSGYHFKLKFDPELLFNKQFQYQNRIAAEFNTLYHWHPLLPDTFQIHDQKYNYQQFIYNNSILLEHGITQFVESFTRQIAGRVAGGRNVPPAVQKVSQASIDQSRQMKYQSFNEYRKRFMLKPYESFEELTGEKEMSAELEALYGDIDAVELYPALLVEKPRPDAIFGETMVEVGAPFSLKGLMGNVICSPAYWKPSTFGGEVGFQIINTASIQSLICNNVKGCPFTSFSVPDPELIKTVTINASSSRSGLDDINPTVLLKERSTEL

[6] = test system: RPE1 (normal human immortalized retinal pigment epithelial cell line); experiment: MTT assay against normal RPE1 cells; type: cell-based; conditions: RPE-1, read-out: IC50 ± SE, RPE1
EGFR [7] = target: T3, EGFR; experiment: EGFR Western blot in HCT116; type: cell-based; conditions: for EGFR HCT116 % Inhibition: Western blot at MTT-IC50; for EGFR HCT116 RQ (relative quantification): Western blot at MTT-IC50, control RQ 4.0382
VEGFR-2 [8] = target: T2, VEGFR-2; experiment: VEGFR-2 Western blot in MCF7; type: cell-based; conditions: for VEGFR2 MCF7 % Inhibition: Western blot at MTT-IC50; for VEGFR2 MCF7 RQ (relative quantification): Western blot at MTT-IC50, control RQ 3.725
[9] = test system: SARS-CoV-2 (hCoV-19/Egypt/NRC-03/2020); conditions: SARS-CoV-2 / VERO-E6

SMILES	IC50 [1]	SI (selectivity index), A431 [1]	IC50 [2]	SI (selectivity index), HCT116 [2]	IC50 (COX-1)	VEGFR2 HCT116 % Inhibition (VEGFR-2 [3])	VEGFR2 HCT116 RQ (relative quantification) (VEGFR-2 [3])	IC50 [4]	SI (selectivity index), MCF7 [4]	EGFR MCF7 % Inhibition (EGFR [5])	EGFR MCF7 RQ (relative quantification) (EGFR [5])	IC50 (COX-2)	SI = IC50(COX-1)/IC50(COX-2) (COX-2)	IC50 [6]	EGFR HCT116 % Inhibition (EGFR [7])	EGFR HCT116 RQ (relative quantification) (EGFR [7])	VEGFR2 MCF7 % Inhibition (VEGFR-2 [8])	VEGFR2 MCF7 RQ (relative quantification) (VEGFR-2 [8])	SI = CC50/IC50 [9]
COc1ccc(/C=C2\CN(C(=O)c3ccccc3OC(C)=O)C/C(=C\c3ccc(OC)cc3)C2=O)cc1 [Compound 5f, 2-[3,5-Bis((E)-4-methoxybenzylidene)-4-oxopiperidine-1-carbonyl]phenyl acetate]	6.04 ± 0.62 µM	1.6	6.08 ± 0.49 µM	1.63	0.147 µM	64.1%	1.37	5.38 ± 0.51 µM	1.84	76.3%	1	0.315 µM	0.467	9.89 ± 0.66 µM	62.5%	1.516	58.1%	1.56	1.2
COc1ccc(/C=C2\CN(C(=O)c3ccccc3OC(C)=O)C/C(=C\c3ccc(OC)c(OC)c3)C2=O)cc1OC [Compound 5g, 2-[3,5-Bis((E)-3,4-dimethoxybenzylidene)-4-oxopiperidine-1-carbonyl]phenyl acetate]	0.973 ± 0.07 µM	10.6	2.39 ± 0.21 µM	4.32	0.262 µM	37.3%	2.393	4.97 ± 0.42 µM	2.08	61.2%	1.638	2.18 µM	0.120	10.3 ± 1.1 µM	61.5%	1.554	37.6%	2.324	57.5
COc1cc(/C=C2\CN(C(=O)c3ccccc3OC(C)=O)C/C(=C\c3cc(OC)c(OC)c(OC)c3)C2=O)cc(OC)c1OC [Compound 5h, 2-[4-Oxo-3,5-bis((E)-3,4,5-trimethoxybenzylidene)piperidine-1-carbonyl]phenyl acetate]	0.472 ± 0.02 µM	18.3	1.33 ± 0.09 µM	6.47	0.147 µM	37.2%	2.398	3.99 ± 0.36 µM	2.16	58.9%	1.737	0.438 µM	0.336	8.62 ± 0.72 µM	57.9%	1.698	45.4%	2.032	35.0
CC(=O)Oc1ccccc1C(=O)N1C/C(=C\c2cccs2)C(=O)/C(=C/c2cccs2)C1 [Compound 5i, 2-[(3E,5E)-4-Oxo-3,5-bis(thiophen-2-ylmethylene)piperidine-1-carbonyl]phenyl acetate]	2.15 ± 0.15 µM	8.8	9.26 ± 0.61 µM	2.06	0.455 µM	39.8%	2.297	5.58 ± 0.52 µM	3.41	63.6%	1.540	0.772 µM	0.589	19 ± 0.99 µM	61.3%	1.564	46.3%	2.000	125.6
CC(=O)Oc1ccc(Cl)cc1C(=O)N1C/C(=C\c2ccccc2)C(=O)/C(=C/c2ccccc2)C1 [Compound 5j, 4-Chloro-2-[3,5-di((E)-benzylidene)-4-oxopiperidine-1-carbonyl]phenyl acetate]	2.51 ± 0.18 µM	3.7	2.62 ± 0.19 µM	3.53	0.142 µM	79.0%	0.8	4.5 ± 0.39 µM	2.06	65.7%	1.45	1.19 µM	0.120	9.26 ± 0.75 µM	68.5%	1.273	49.0%	1.9	5.7
CC(=O)Oc1ccc(Cl)cc1C(=O)N1C/C(=C\c2ccc(Cl)cc2)C(=O)/C(=C/c2ccc(Cl)cc2)C1 [Compound 5k, 2-[3,5-Bis((E)-4-chlorobenzylidene)-4-oxopiperidine-1-carbonyl]-4-chlorophenyl acetate]	0.417 ± 0.03 µM	18.6	1.97 ± 0.17 µM	3.94	0.391 µM	68.6%	1.2	4.07 ± 0.33 µM	1.91	69.0%	1.31	0.676 µM	0.578	7.77 ± 0.56 µM	63.4%	1.479	59.7%	1.5	10.3
CC(=O)Oc1ccc(Cl)cc1C(=O)N1C/C(=C\c2ccc(Br)cc2)C(=O)/C(=C/c2ccc(Br)cc2)C1 [Compound 5l, 2-[3,5-Bis((E)-4-bromobenzylidene)-4-oxopiperidine-1-carbonyl]-4-chlorophenyl acetate]	0.667 ± 0.07 µM	10.8	1.15 ± 0.13 µM	6.27	0.59 µM	76.4%	0.9	4.15 ± 0.37 µM	1.74	66.9%	1.4	1.01 µM	0.582	7.23 ± 0.49 µM	66.9%	1.336	70.5%	1.1	11.1
